The source of these data is patent US20210161855A1, “5-LIPOXYGENASE ANTAGONISTS” (INSTITUTO DE MEDICINA MOLECULAR JOÃO LOBO ANTUNES, priority 2017, published 2021).

pIC50: −log10 of the molar value. Read-outs that look alike come from different tables or passages of the source.

One test concerns the target T1, 12-lipoxygenase (12-LO) (Homo sapiens, UniProt P18054).
T1 sequence (P18054 1-663): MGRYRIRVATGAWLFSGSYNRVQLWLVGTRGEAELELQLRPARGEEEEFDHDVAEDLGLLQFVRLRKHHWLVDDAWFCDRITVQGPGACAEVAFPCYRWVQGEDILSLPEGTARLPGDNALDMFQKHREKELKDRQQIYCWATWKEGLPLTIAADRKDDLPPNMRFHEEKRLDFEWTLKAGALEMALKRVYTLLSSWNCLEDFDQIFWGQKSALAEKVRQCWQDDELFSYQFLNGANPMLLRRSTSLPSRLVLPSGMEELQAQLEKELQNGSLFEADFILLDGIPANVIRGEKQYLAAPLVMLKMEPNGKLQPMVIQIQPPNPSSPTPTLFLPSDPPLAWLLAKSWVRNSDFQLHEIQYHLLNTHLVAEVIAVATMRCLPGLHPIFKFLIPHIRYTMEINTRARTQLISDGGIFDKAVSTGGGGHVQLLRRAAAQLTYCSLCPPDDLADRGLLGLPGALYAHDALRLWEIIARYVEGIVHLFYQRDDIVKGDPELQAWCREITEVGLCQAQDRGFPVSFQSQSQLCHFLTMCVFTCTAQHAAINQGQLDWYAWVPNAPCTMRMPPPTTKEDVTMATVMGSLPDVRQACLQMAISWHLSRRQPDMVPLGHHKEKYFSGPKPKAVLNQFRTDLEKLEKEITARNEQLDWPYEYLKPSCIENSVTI
Description: 12-LO inhibition assay, Method A (Cerep). Type of test: biochemical. Here is the method: Method A: 5-Lipoxygenase (5-LO), 12-lipoxygenase (12-LO) and 15-lipoxygenase-2 (15-LO-2) inhibition assays were performed at Cerep, SA (Celle l'Evescault, France) on a fee-for-service basis (Ref 0772^36, 0883^37 and 0893^38, respectively), as described in Table 1.

The target in the next test is TRPV1 (Homo sapiens, UniProt Q8NER1). Description: TRPV1 channel antagonism, functional assay. Conditions: 150 μM. Type of test: cell-based.
Sequence of TRPV1 (Q8NER1 whole entry, species assumed): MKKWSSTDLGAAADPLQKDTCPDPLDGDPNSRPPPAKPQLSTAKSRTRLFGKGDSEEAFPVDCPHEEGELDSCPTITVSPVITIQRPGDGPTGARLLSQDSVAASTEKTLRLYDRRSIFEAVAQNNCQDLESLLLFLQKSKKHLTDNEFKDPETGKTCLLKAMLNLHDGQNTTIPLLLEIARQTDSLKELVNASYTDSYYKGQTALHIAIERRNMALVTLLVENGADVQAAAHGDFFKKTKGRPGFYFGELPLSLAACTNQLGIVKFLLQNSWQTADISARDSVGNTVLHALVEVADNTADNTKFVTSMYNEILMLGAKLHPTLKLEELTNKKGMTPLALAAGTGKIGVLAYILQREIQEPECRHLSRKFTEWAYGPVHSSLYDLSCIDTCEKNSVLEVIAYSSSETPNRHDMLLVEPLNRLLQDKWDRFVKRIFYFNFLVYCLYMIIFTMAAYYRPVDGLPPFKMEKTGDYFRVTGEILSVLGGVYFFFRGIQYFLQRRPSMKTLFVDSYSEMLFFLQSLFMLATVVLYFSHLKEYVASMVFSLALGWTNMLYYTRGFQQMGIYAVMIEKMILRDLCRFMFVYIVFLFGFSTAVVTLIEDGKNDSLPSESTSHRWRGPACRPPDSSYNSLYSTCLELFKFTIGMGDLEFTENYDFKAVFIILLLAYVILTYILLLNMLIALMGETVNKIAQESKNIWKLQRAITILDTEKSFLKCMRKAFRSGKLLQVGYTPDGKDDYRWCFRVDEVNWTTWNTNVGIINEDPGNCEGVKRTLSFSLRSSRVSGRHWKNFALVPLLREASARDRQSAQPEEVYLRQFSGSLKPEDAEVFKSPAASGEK
The subject of another test is HEL-GFP cells. Description: Xenograft model of human AML, HEL-GFP cells in NSG mice. Type of test: in vivo. Here is the method: The xenograft model of human AML used relies in the intra-bone marrow injection of 5×10^5 HEL-GFP cells into the right tibia of previously irradiated (200 rad) NSG mice. Upon tumor trigger in the blood mouse are randomly assigned for treatment with 1 (50 mg/kg intra-peritoneal) or vehicle.
A general note: Xenograft models place foreign cells or tissue in a host animal.

A further test deals with T2, 5-LO (Homo sapiens, UniProt P09917).
T2 sequence (P09917 1-674): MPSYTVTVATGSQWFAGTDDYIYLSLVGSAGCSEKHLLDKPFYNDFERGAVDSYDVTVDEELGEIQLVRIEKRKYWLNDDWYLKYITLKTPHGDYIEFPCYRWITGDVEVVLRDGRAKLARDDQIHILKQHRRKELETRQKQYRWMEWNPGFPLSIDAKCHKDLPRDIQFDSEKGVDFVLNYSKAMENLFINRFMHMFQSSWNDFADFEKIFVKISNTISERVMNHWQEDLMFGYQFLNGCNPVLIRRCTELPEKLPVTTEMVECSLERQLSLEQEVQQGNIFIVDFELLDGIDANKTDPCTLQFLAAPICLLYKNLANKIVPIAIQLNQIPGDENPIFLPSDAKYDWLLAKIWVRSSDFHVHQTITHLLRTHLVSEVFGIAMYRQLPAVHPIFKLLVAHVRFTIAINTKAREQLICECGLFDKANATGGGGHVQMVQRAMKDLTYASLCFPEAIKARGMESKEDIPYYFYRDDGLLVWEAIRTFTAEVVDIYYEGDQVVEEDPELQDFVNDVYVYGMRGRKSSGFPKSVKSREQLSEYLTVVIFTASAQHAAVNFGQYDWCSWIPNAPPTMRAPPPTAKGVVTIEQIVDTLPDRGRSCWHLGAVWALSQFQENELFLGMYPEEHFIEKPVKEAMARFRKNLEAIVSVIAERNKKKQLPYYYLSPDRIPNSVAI
As to the kind of experiment: 5-LO product formation in intact human neutrophils. It counts as cell-based. On the set-up: endogenous in cells; host or cells: neutrophils isolated from peripheral blood of healthy adult volunteers; intact or sonicated homogenates. The protocol:
Peripheral blood (University Hospital Jena, Germany) was withdrawn from healthy adult volunteers with consent that had not taken any anti-inflammatory drugs during the last 10 days, by venipuncture in heparinized tubes (16 IE heparin/mL blood). The blood was centrifuged at 4000 g for 20 min at 20° C. for preparation of leukocyte concentrates. Leukocyte concentrates were then subjected to dextran sedimentation and centrifugation on lymphocyte separation medium (LSM 1077, PAA, Colbe, Germany). Contaminating erythrocytes of pelleted neutrophils were removed by hypotonic Iysis. […]
Method B. For determination of 5-LO products in intact neutrophils, the cells (5×10^6) were resuspended in 1 mL PGC buffer, preincubated for 15 min at 37° C. with β-lapachone or vehicle (0.1% DMSO), and incubated for 10 min at 37° C. with 2.5 μM Ca^2+-ionophore A23187 plus 20 μM AA. […] 5-LO products (LTB4, tr-LTB4 isomers, and 5-HETE), were analyzed by RP-HPLC and quantities calculated on the basis of the internal standard PGB1. Cysteinyl-LTs C4, D4 and E4 were not detected (amounts were below detection limit), and oxidation products of LTB4 were not determined.
Data are expressed as mean±S.E.M. IC50 values were calculated from averaged measurements at 6 different concentrations of the compound by nonlinear regression using GraphPad Prism software (San Diego, Calif.) one site binding competition. […]

A word on the inhibition: it is how much of the control response was suppressed. Read a low inhibition as a response near the control. In general, pIC50 refers to −log10 of the IC50, conventionally taken in molar units. At 12-lipoxygenase (12-LO), `CC1(C)CCC2=C(O1)c1ccccc1C(=O)C2=O` [Compound 1, 3,4-dihydro-2,2-dimethyl-2H-naphtho[1,2-b]pyran-5,6-dione] had an inhibition at 5 µM of 38%. This compound also returned a TRPV1 antagonist effect on TRPV1 of 63%. In the test with HEL-GFP cells (50 mg/kg intra-peritoneal), the Overall survival entry is “significantly increased overall survival”. Also, the “Tumour burden in the blood” value with HEL-GFP cells (50 mg/kg intra-peritoneal, day 9) is “tendency for lower burden”. Moreover, in the test on HEL-GFP cells (longest-living treated mouse, sacrificed at day 30, versus non-treated controls), the “Tumour burden in organs (liver, spleen and lung)” value was “lower tumour burden in all the analysed organs”. In addition, the pIC50 is 6.38 on 5-LO (1 mM DTT, n=4, read-out: IC50, 5-LO activity in intact human neutrophils supplemented with DTT) and 5.07 at 5-LO (without DTT, A23187 plus arachidonic acid, n=3, read-out: IC50 (5-LO), intact human neutrophils).
